SMILES strings stand for the structures.

Series [1] is described as follows: Oral pharmacokinetics in mice. It counts as in vivo. The procedure: (§1) The pharmacokinetic evaluations in mice were adjuncts to the primary pharmacodynamic xenograft studies. The evaluations in rats included toxicokinetic assessments in single-dose, 7-day, and 28-day toxicology studies as well as a mass-balance study after a single oral dose of ^14C-Compound #10. The evaluations in dogs included toxicokinetic assessments in 7-day and 28-day toxicology studies. In the studies performed, rodents were dosed once daily with Compound #10 formulated in vehicle and administered via oral gavage.

The nature of series [2]: Oral toxicokinetics in dogs. It counts as in vivo, beagle dogs. Here is the method: as §1
Series [3] can be described thus: Phase 1 escalating multiple-dose study in healthy volunteers: pharmacokinetics (Table 28). It counts as in vivo, human. Here is the method:
(§2) The study was performed under the oversight of the French health authorities. The study was not performed under an IND.
(§3) Methods. The trial was a Phase 1, randomized, escalating multiple dose, single center study conducted in 2 stages.
Capsules contained 2 mg or 20 mg of active substance.
Capsules contained 20 mg or 25 mg of active substance.
Noncompartmental methods were used to compute Tmax, Cmax, and AUC. Dose proportionality and sex effect were evaluated using ANOVA on log transformed PK parameters using dose, sex, and dose by sex as fixed factors.

Series [4] in a line: Functional observation battery, 7 days oral gavage. It counts as in vivo, Sprague Dawley rats. The following applies: 40, 120, and 400 mg/kg daily oral gavage.
The next series deals with HT1080 xenografts. The experiment in a line: Dose response assessment in nude mice bearing HT1080 xenografts (tumor and plasma human VEGF, tumor size, trough plasma level). The series is classed as in vivo, athymic nude mice. The procedure:
Experimental Study Design. HT1080 cells (5×10^6 cells/mouse) were implanted subcutaneously in male athymic nude mice.
Tumor size was measured using calipers at periodic intervals during the study (data shown in Section 9.2.2). […] Mice were sacrificed, and excised tumors were homogenized in buffer containing protease inhibitors. Both terminal intratumoral and pathologic plasma human VEGF levels were measured using an ELISA that recognizes human VEGF121 and VEGF165 (as described in Section 9.1.1.1). Intratumoral VEGF levels were normalized to the total tumor protein concentration, while pathologic plasma human VEGF levels were expressed in pg/mL of plasma.
Experimental Design. The experimental design was reported in Section 9.1.2.2.

A short description of series [5]: Phase 1 escalating multiple-dose study in healthy volunteers: safety and tolerability. It counts as in vivo. As to conditions: through the highest dose level tested ([…] TID). Here is the method:
as §2, §3

Turning to `COc1ccc(C2c3[nH]c4ccc(Cl)cc4c3CCN2C(=O)Oc2ccc(Cl)cc2)cc1` (racemic) [Compound #10], the “oral bioavailability (in words)” value in series [1], in series [2] and in series [3] was “orally bioavailable” in each case. Further, the “relationship between dose and plasma exposure (in words)” value in series [1] (oral) and in series [2] (oral) was “bell-shaped curve” throughout. Moreover, in series [3] (Stage 1 and Stage 2), the “increases in mean Cmax and AUC0-24 with dose (in words)” value is “generally dose proportional”. In series [3] (all dose levels), the “target trough plasma concentration of ~0.1 to […] (in words)” value is given as “achieved”. Moreover, in series [3] (continuous dosing 7 days), the “accumulation of Cmax and AUC0-24, Day 1 to Day 7” value was approximately 2 fold. For the same compound, in series [3] (oral capsules), the “lag time before appearance in plasma” value is approximately 30 min. Moreover, the “behavioral or neurological effects (functional observation battery)” value in series [4] was “no adverse behavioral or neurological effects”. Besides, in the series with HT1080 xenografts (all Compound #10 dose groups (0.3 to 10 mg/kg oral), 18 days), the “pathologic human VEGF levels in tumors and in plasma (in words)” value is recorded as “significantly suppressed”. Besides, in the series with HT1080 xenografts (all dose levels of >=1 mg/kg BID), the “human VEGF reductions (in words)” value is on record as “essentially maximal”. Moreover, the “antitumor activity, tumor size over time (in words)” value in the series with HT1080 xenografts (dose levels of >=1 mg/kg BID) was “maximum antitumor activity”. Further, the “tumor and pathologic plasma human VEGF concentrations (in words)” value in the series on HT1080 xenografts (suboptimal dose of 0.3 mg/kg BID) was “partial reductions”. In series [5], the dose limiting toxicities entry is “no dose limiting toxicities were observed”.

For the origin of these results see patent US8697662B2, “Methods for treating Kaposi sarcoma” (PTC Therapeutics, Inc., priority 2009, dated 2014).
